Holding throughout (assay type): in vivo, human
Assay [1] relates to general inflammation in patients. The assay can be described thus: general anti-inflammatory analgesic use, general inflammation patients. Conditions: two or more cycles. From the text: Containing native human cyclooxygenase (COX-2), doxorubicin natural (atm) or a pharmaceutical composition of doxorubicin substances of natural origin as a general anti-inflammatory analgesic drugs applied, general inflammation in patients diagnosed according to the usual criteria for diagnosis; “effective”, “cured”, “cure” and the like in accordance with conventional criteria standards. Dose of the drug present invention are: adult three times daily 1.8 g. Course of seven days When two or more cycles, the treatment effect of contrast in the following table: […]

In assay [2] the test system is cancer (lymphoma) patients. Nature of the assay: treatment of tumors, cancer (lymphoma) patients. The text has this:
Containing native human cyclooxygenase (COX-2), doxorubicin natural (atm) or natural substance class doxorubicin in the preparation of a pharmaceutical composition of a medicament for the treatment of tumors, cancer (lymphoma) patients diagnosed is the usual criteria for diagnosis; “effective”, “cured”, “cure” and the like in accordance with conventional criteria standards. Dose of the drug present invention are: adult three times a day, every 1.8 go for 7 days. When eight or more cycles, the treatment effect of contrast in the following table: […]

Assay [3] deals with nephritis patients. The assay can be described thus: treatment of nephritis patients, rates by traditional standard. The following applies: six or more cycles, course of seven days. From the text: Containing native cyclooxygenase (COX-2) doxorubicin pharmaceutical compositions of natural (atm) doxorubicin or a natural substance in the class of drugs for treating nephritis application preparation, nephritis patients diagnosed according to the usual Standard diagnosis; “effective”, “markedly”, “cure” and other standards are in accordance with the traditional standard. Dose of the drug present invention are: adult three times daily 1.8 g. Course of seven days. When six or more cycles, the treatment effect of contrast in the following table: […]

In assay [1], `[H]/N=C(/N)N[C@H]1[C@H](O)[C@@H](O)[C@H](O[C@@H]2O[C@@H](C)[C@](O)(C=O)[C@H]2O[C@@H]2O[C@@H](CO)[C@H](O)[C@@H](O)[C@@H]2NC)[C@@H](N/C(N)=N\[H])[C@@H]1O` [Streptomycin] displayed an Invalid of 17.14% and a Markedly of 78.57%. Also, the Effective in assay [1] (course of seven days, invention drug adult three times daily 1.8 g) is 14.29%.

In assay [2] (eight or more cycles), `CC(=O)O[C@H]1C(=O)[C@@]2(C)[C@H]([C@H](OC(=O)c3ccccc3)[C@]3(O)C[C@H](OC(=O)[C@H](O)[C@@H](NC(=O)c4ccccc4)c4ccccc4)C(C)=C1C3(C)C)[C@]1(OC(C)=O)CO[C@@H]1C[C@@H]2O` [Paclitaxel] came in with a Cure of 16.3%, an Invalid of 2.3% and a Markedly of 32.6%. The same compound registered an Effective in assay [2] (eight or more cycles of 7 days, invention drug adult three times a day 1.8 g) of 48.8%.

As for `CC(C)(C)NCC(O)COc1ccccc1C#N` (stereo not drawn) [Bunitrolol], in assay [3], the Markedly was 59%. The Effective in assay [3] (invention drug adult three times daily 1.8 g) came out at 93.2%.
